The conditions of data set [1]: human gut metagenome, 24 h, 2 µM.
Data set [2] is described as follows: The drug is tested on WLS-090 corresponding to human gut metagenome with ENA study accession number: PRJEB37062 and ENA sample accession number: ERS12561753 for biotransformation under anaerobic condition. The drug concentrations were measured over 9 timepoints collected between 0 and 24 hours of incubation by liquid-chromatography-coupled mass spectrometry (LC–MS). Particulars: 2 µM.

Data set [3] is described as follows: The drug is tested on Z-030 corresponding to mouse gut metagenome with ENA study accession number: PRJEB37062 and ENA sample accession number: ERS12561829 for biotransformation under anaerobic condition. The drug concentrations were measured over 9 timepoints collected between 0 and 24 hours of incubation by liquid-chromatography-coupled mass spectrometry (LC–MS). Particulars: 2 µM.

Data set [4] can be described thus: The drug is tested on Z-011 corresponding to mouse gut metagenome with ENA study accession number: PRJEB37062 and ENA sample accession number: ERS12561811 for biotransformation under anaerobic condition. The drug concentrations were measured over 9 timepoints collected between 0 and 24 hours of incubation by liquid-chromatography-coupled mass spectrometry (LC–MS). Particulars: 2 µM.

Data set [5] can be described thus: The drug is tested on Z-004 corresponding to metagenome with ENA study accession number: PRJEB37062 and ENA sample accession number: ERS12561804 for biotransformation under anaerobic condition. The drug concentrations were measured over 9 timepoints collected between 0 and 24 hours of incubation by liquid-chromatography-coupled mass spectrometry (LC–MS). Particulars: 2 µM.

For data set [6] the following is noted: human gut metagenome, 24 h, 2 µM. The source holds these as a separate data set.
The conditions of data set [7]: human gut metagenome, 24 h, 2 µM. This is another data set of the same source.
The nature of data set [8]: The drug is tested on Z-029 corresponding to rat gut metagenome with ENA study accession number: PRJEB37062 and ENA sample accession number: ERS12561828 for biotransformation under anaerobic condition. The drug concentrations were measured over 9 timepoints collected between 0 and 24 hours of incubation by liquid-chromatography-coupled mass spectrometry (LC–MS). Particulars: 2 µM.

The conditions of data set [9]: human gut metagenome, 24 h, 2 µM. This is another data set of the same source.
The conditions of data set [10]: human gut metagenome, 24 h, 2 µM. This is another data set of the same source.
For data set [11] the following is noted: human gut metagenome, 24 h, 2 µM. This is another data set of the same source.
The nature of data set [12]: The drug is tested on WLS-370 corresponding to human gut metagenome with ENA study accession number: PRJEB37062 and ENA sample accession number: ERS12561793 for biotransformation under anaerobic condition. The drug concentrations were measured over 9 timepoints collected between 0 and 24 hours of incubation by liquid-chromatography-coupled mass spectrometry (LC–MS). Particulars: 2 µM.

Data set [13] in a line: The drug is tested on Z-023 corresponding to metagenome with ENA study accession number: PRJEB37062 and ENA sample accession number: ERS12561822 for biotransformation under anaerobic condition. The drug concentrations were measured over 9 timepoints collected between 0 and 24 hours of incubation by liquid-chromatography-coupled mass spectrometry (LC–MS). Particulars: 2 µM.

The nature of data set [14]: The drug is tested on Z-009 corresponding to pig gut metagenome with ENA study accession number: PRJEB37062 and ENA sample accession number: ERS12561809 for biotransformation under anaerobic condition. The drug concentrations were measured over 9 timepoints collected between 0 and 24 hours of incubation by liquid-chromatography-coupled mass spectrometry (LC–MS). The settings on record: 2 µM.

The conditions of data set [15]: human gut metagenome, 24 h, 2 µM. The source holds these as a separate data set.
The conditions of data set [16]: human gut metagenome, 24 h, 2 µM. The source holds these as a separate data set.
The nature of data set [17]: The drug is tested on WLS-086 corresponding to human gut metagenome with ENA study accession number: PRJEB37062 and ENA sample accession number: ERS12561752 for biotransformation under anaerobic condition. The drug concentrations were measured over 9 timepoints collected between 0 and 24 hours of incubation by liquid-chromatography-coupled mass spectrometry (LC–MS). Particulars: 2 µM.

For data set [18] the following is noted: human gut metagenome, 24 h, 2 µM. The source holds these as a separate data set.
The conditions of data set [19]: human gut metagenome, 24 h, 2 µM. The source holds these as a separate data set.
The conditions of data set [20]: human gut metagenome, 24 h, 2 µM. This is another data set of the same source.

SMILES strings stand for the structures.
Note: call rule not given here.

On to `NC(CO)(CO)CO.O=C(c1ccccc1)c1ccc2n1CCC2C(=O)O` (stereo not given) [KETOROLAC TROMETHAMINE], for which the “Bacterial Biotransformation” value in data set [1] is on record as “Compound metabolized”; in data set [2], “Compound metabolized”; in data set [3] it was “Compound NOT metabolized”; in data set [4], “Compound NOT metabolized”; in [5], “Compound NOT metabolized”; in data set [6], “Compound metabolized”. The “Bacterial Biotransformation” value in data set [7], in data set [8], in data set [9], in [10], in data set [11] and in [12] was “Compound metabolized” in each case. In addition, the “Bacterial Biotransformation” value in data set [13] was “Compound metabolized”; in [14] it was “Compound NOT metabolized”; in data set [15] it was “Compound metabolized”; in data set [16] it was “Compound metabolized”; in [17] it was “Compound metabolized”; in data set [18], “Compound metabolized”. Also, the “Bacterial Biotransformation” value in data set [19] and in data set [20] was “Compound metabolized” each time.

In the case of `CNC(=C[N+](=O)[O-])NCCSCc1csc(CN(C)C)n1` [NIZATIDINE], the “Bacterial Biotransformation” value in data set [1] is “Compound metabolized”; in data set [2], “Compound NOT metabolized”; in data set [3], “Compound metabolized”; in data set [4], “Compound metabolized”; in [5] it was “Compound NOT metabolized”; in data set [6], “Compound metabolized”. The “Bacterial Biotransformation” value was “Compound metabolized” in data set [7]; “Compound NOT metabolized” in data set [8]; “Compound metabolized” in data set [9]; “Compound metabolized” in data set [10]; “Compound metabolized” in data set [11]; “Compound NOT metabolized” in data set [12]. The “Bacterial Biotransformation” value in data set [13] was “Compound NOT metabolized”; in data set [14], “Compound NOT metabolized”; in [15], “Compound metabolized”; in data set [16], “Compound NOT metabolized”; in [17], “Compound metabolized”; in data set [18] it was “Compound NOT metabolized”. The “Bacterial Biotransformation” value in [19] and in [20] was “Compound metabolized” in each case.

Regarding `COc1ccc2[nH]c([S+]([O-])Cc3ncc(C)c(OC)c3C)nc2c1` (stereo not given) [OMEPRAZOLE], the “Bacterial Biotransformation” value in data set [1] is listed as “Compound metabolized”; in data set [2], “Compound metabolized”; in data set [3] it was “Compound metabolized”; in data set [4] it was “Compound NOT metabolized”; in [5] it was “Compound metabolized”; in data set [6], “Compound metabolized”. Further, the “Bacterial Biotransformation” value in [7], in data set [8], in data set [9], in [10], in data set [11] and in data set [12] was “Compound metabolized” each time. The “Bacterial Biotransformation” value is “Compound NOT metabolized” in data set [13]; “Compound NOT metabolized” in data set [14]; “Compound metabolized” in [15]; “Compound metabolized” in data set [16]; “Compound metabolized” in data set [17]; “Compound metabolized” in data set [18]. For the same compound, the “Bacterial Biotransformation” value in data set [19] and in [20] was “Compound metabolized” each time.

In the case of `O=C(O)CCc1nc(-c2ccccc2)c(-c2ccccc2)o1` [OXAPROZIN], the “Bacterial Biotransformation” value is “Compound metabolized” in [1]; “Compound metabolized” in data set [2]; “Compound NOT metabolized” in [3]; “Compound NOT metabolized” in [4]; “Compound NOT metabolized” in data set [5]; “Compound metabolized” in data set [6]. For the same compound, the “Bacterial Biotransformation” value in data set [7] is reported as “Compound metabolized”; in [8], “Compound NOT metabolized”; in [9], “Compound metabolized”; in [10], “Compound metabolized”; in data set [11] it was “Compound metabolized”; in data set [12], “Compound metabolized”. For the same compound, the “Bacterial Biotransformation” value in data set [13] is recorded as “Compound metabolized”; in [14], “Compound NOT metabolized”; in data set [15], “Compound metabolized”; in data set [16], “Compound metabolized”; in data set [17] it was “Compound metabolized”; in data set [18], “Compound metabolized”. Moreover, the “Bacterial Biotransformation” value in data set [19] and in [20] was “Compound metabolized” each time.

For the compound `CC(C)(C)NC[C@H](O)COc1ccccc1C1CCCC1.CC(C)(C)NC[C@H](O)COc1ccccc1C1CCCC1.O=S(=O)(O)O` [PENBUTOLOL SULFATE], the “Bacterial Biotransformation” value in [1] is given as “Compound metabolized”; in data set [2], “Compound metabolized”; in [3] it was “Compound NOT metabolized”; in data set [4], “Compound NOT metabolized”; in data set [5], “Compound metabolized”; in data set [6], “Compound metabolized”. Also, the “Bacterial Biotransformation” value in data set [7] is listed as “Compound metabolized”; in data set [8], “Compound NOT metabolized”; in data set [9] it was “Compound metabolized”; in data set [10], “Compound metabolized”; in data set [11], “Compound metabolized”; in data set [12] it was “Compound metabolized”. In addition, the “Bacterial Biotransformation” value is “Compound metabolized” in data set [13]; “Compound metabolized” in data set [14]; “Compound metabolized” in [15]; “Compound metabolized” in data set [16]; “Compound metabolized” in [17]; “Compound NOT metabolized” in data set [18]. Further, the “Bacterial Biotransformation” value in data set [19] and in [20] was “Compound metabolized” each time.

As to `CCOc1ccc(NC(C)=O)cc1` [PHENACETIN], the “Bacterial Biotransformation” value in data set [1], in [2], in data set [3], in data set [4], in data set [5] and in [6] was “Compound NOT metabolized” throughout. The “Bacterial Biotransformation” value in data set [7], in [8], in [9], in [10], in data set [11] and in [12] was “Compound NOT metabolized” each time. The “Bacterial Biotransformation” value in data set [13], in data set [14], in [15], in data set [16], in [17] and in data set [18] was “Compound NOT metabolized” in each case. The “Bacterial Biotransformation” value in data set [19] and in [20] was “Compound NOT metabolized” in each case.

(Values after ChEMBL document CHEMBL5724914, “Linking interpersonal differences in gut microbiota composition and drug biotransformation activity” (2024).)
